# Read-outs that look alike come from different tables or passages of the source.
# Experiments:
# Bcl-XL = Bcl-XL (Homo sapiens, UniProt Q07817); assay: binding to other Bcl2 family members
# [1] = system: H1299 cells overexpressing Bcl2 AAAA mutant; assay: cell survival of H1299 cells overexpressing compound Bcl2 AAAA mutant; format: cell-based
# From the text: A panel of Bcl2 mutants were generated within the BH4 domain at the specific residues that were identified by the initial docking simulations, including D10A, N11A, R12A, E13A, M16A, K17A, H20A and D31A Bcl2 mutants. A compound Bcl2 mutant D10A/N11A/R12A/E13A (AAAA) was created. Recombinant proteins of these mutants were generated for BDA-2/Bcl2 binding analysis using a competitive fluorescence polarization. […] Second, WT and all Bcl2 mutants were exogenously overexpressed in H1299 cells that express undetectable levels of endogenous Bcl2.
# [2] = system: H460 or DMS53 cells expressing Bcl2 shRNA transfected with WT Bcl2; assay: rescue of Bcl2-silenced cells with exogenous WT Bcl2; format: cell-based; conditions: 72 h
# From the text: Whether expression of exogenous Bcl2 can restore the sensitivity of Bcl2-silenced lung cancer cells to BDA-2 and whether the BDA-2/BH4 binding is important for such effect was examined. WT and BDA-2 binding deficient D10A/N11A/R12A/E13A (AAAA) Bcl2 mutant cDNA in pCIneo or vector-only control were transfected into H460 or DMS53 cells expressing Bcl2 shRNA. It has been reported that if the shRNA is directed to the 3′ UTR or 5′ UTR of the gene, the effect of the shRNA1 can be rescued by ectopically expressing the protein using the wild-type or mutant cDNA. Because Bcl2 shRNA1 targets the 5′UTR of endogenous Bcl2, the silencing effect of shRNA1 on Bcl2 expression could be rescued by transfection of exogenous WT or AAAA Bcl2 mutant. After transfection, cells were treated with BDA-2 or the BH3 mimetic ABT-199 at the indicated concentrations for 72 h. […] The apoptotic effect of BDA-2 on lung cancer cells requires its BH4 binding.
# Plasmid pUC19 DNA = assay: electrophoretic mobility shift assay (EMSA); format: binding
# Description: To test whether BDA-2 reacts with DNA as a crosslinker, electrophoretic mobility shift assay (EMSA) was performed. Cisplatin, a known DNA binding agent, was used as positive control. Plasmid pUC19 DNA was incubated with BDA-2 or cisplatin.
# H460 cells = assay: co-IP of Bcl2 with Bax and Bim; format: cell-based
# Description: To test whether BDA-366-induced Bcl2 conformational change increases interaction between Bcl2 and Bax in cells, co-IP experiments were performed following treatment of H460 cells with BDA-366.
# SCLC cell lines = assay: growth of SCLC cell lines; format: cell-based
# Sequence of Bcl-XL (Q07817 whole entry, species assumed): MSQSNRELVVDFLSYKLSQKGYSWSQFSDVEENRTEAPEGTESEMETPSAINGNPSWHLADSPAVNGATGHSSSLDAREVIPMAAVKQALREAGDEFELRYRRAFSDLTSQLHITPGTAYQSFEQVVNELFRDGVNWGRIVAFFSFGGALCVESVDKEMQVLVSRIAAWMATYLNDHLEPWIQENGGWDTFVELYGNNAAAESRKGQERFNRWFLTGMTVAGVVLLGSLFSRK
compound,measurement,setting,value
"CCN(CC)CC(O)CNc1ccc(NCC2CO2)c2c1C(=O)c1ccccc1C2=O (centres unmarked) [BDA-366, 1-((3-(diethylamino)-2-hydroxypropyl)amino)-4-((oxiran-2-ylmethyl)amino)anthracene-9,10-dione]",binding to Bcl-XL,Bcl-XL,failed to bind
same,binding to Bcl-XL,Bcl-XL; listed as BDA-2,did not bind
same,"cell survival on exposure, AAAA mutant overexpressed",[1],significantly prolonged cell survival
same,sensitivity of cells after expression of exogenous WT Bcl2,[2],restored sensitivity
same,binding to pUC19 DNA causing mobility shift,Plasmid pUC19 DNA,not
same,Bcl2/Bax interaction,H460 cells,enhanced Bcl2/Bax interaction
same,Bcl2/Bim binding,H460 cells,decreased Bcl2/Bim binding
same,growth of SCLC cell lines,SCLC cell lines,efficiently suppressed growth of SCLC cell lines

# Reference: patent US9980936B2, “BH4 antagonists and methods related thereto” (Emory University, priority 2014, dated 2018)
